Reference: ChEMBL document CHEMBL3351894, “Development and evaluation of ST-1829 based on 5-benzylidene-2-phenylthiazolones as promising agent for anti-leukotriene therapy” (Eur J Med Chem, 2015)
Converted amounts (≈) assume the structure as drawn. The source made the active and inactive calls. The rule behind the calls is not given here.

Assays:
[1] = biological target: T1, Polyunsaturated fatty acid 5-lipoxygenase (Homo sapiens, UniProt P09917); test: Inhibition of 5-LO in human PMNL S100 extract using arachidonic acid as substrate incubated for 15 mins prior to substrate addition measured after 10 mins by HPLC analysis
T1 sequence (P09917 whole entry): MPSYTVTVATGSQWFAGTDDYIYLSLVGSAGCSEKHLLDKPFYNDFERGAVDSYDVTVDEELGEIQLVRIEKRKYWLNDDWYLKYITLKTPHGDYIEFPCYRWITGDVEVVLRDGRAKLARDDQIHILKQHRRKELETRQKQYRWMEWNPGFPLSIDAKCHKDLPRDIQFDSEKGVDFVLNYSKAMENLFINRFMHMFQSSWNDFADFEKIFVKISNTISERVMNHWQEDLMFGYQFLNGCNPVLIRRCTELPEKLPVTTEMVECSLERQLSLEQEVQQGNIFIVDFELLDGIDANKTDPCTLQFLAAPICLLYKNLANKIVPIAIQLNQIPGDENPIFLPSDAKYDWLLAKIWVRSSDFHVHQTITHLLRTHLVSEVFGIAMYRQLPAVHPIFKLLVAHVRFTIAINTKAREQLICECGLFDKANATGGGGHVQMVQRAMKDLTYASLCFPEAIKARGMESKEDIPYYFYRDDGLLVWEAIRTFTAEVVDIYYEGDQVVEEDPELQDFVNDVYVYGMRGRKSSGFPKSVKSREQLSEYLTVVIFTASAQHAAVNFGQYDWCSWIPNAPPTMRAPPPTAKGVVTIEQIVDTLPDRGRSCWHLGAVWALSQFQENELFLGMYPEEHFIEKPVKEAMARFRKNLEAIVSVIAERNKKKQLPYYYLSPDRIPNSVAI

[2] = Solubility of the compound in DMSO at RT; format: physicochemical
[3] = Cytotoxicity against human U937 cells assessed as cell viability after 48 hrs by WST-1 assay; format: cell-based; details: U-937, 48 h
[4] = Solubility of the compound in PBS at pH 7.4 at RT; format: physicochemical
[5] = Cytotoxicity against human U937 cells at 30 uM after 48 hrs by LDH assay; format: cell-based; details: u-937, 48 h
[6] = biological target: T1, Polyunsaturated fatty acid 5-lipoxygenase; test: Inhibition of 5-LO in human PMNL using arachidonic acid as substrate assessed as product formation incubated for 15 mins prior to substrate addition measured after 10 mins by HPLC analysis
[7] = biological target: T2, Polyunsaturated fatty acid 5-lipoxygenase (Homo sapiens) (UniProt P09917); details: 0.01 to 1 uM
T2 sequence (whole entry): T1 sequence (P09917 whole entry)
Description: Inhibition of 5-LO in human PMNL using arachidonic acid as substrate assessed as product formation at 0.01 to 1 uM incubated for 15 mins prior to substrate addition measured after 10 mins by HPLC analysis in presence of 10% fetal calf serum

[8] = biological target: T2, Polyunsaturated fatty acid 5-lipoxygenase (Homo sapiens); test: Inhibition of 5-LO in human PMNL using arachidonic acid as substrate assessed as product formation at 1 to 10 uM incubated for 15 mins prior to substrate addition measured after 10 mins by HPLC analysis in presence of 10% fetal calf serum
[9] = biological target: T2, Polyunsaturated fatty acid 5-lipoxygenase (Homo sapiens); test: Reversible inhibition of 5-LO in human PMNL using arachidonic acid as substrate assessed as product formation incubated for 15 mins followed by compound washout measured after 10 mins by HPLC analysis
[10] = Cytotoxicity against human U937 cells at 100 uM after 48 hrs by LDH assay; format: cell-based; details: u-937, 48 h
[11] = Cytotoxicity against human U937 cells assessed as cell viability at 100 uM after 48 hrs by WST-1 assay; format: cell-based, U-937; details: read-out: Activity

IC50 [1] [nM]	IC50 [6] [nM]	SMILES	other results
50	10	COc1ccc(-c2sc(-c3ccc(Cl)cc3)nc2O)cc1	solubility [2]: 50 mM (≈ 15900 µg/mL); IC50 [3]: > 30000 nM; solubility [4]: 0.05 mM (≈ 15.9 µg/mL); Activity [5]: Non-toxic; inhibition [7]: Active
1860	10500	COc1ccc(/C=C2\OC(c3ccc(C)cc3)=NC2=O)cc1	–
350	790	Cc1ccc(-c2nc(O)c(C=C3CCCCC3)s2)cc1	–
730	1660	Cc1ccc(C2=NC(=O)/C(=C/c3ccc(OCC(=O)N4CCOCC4)cc3)S2)cc1	solubility [2]: 20 mM (≈ 8450 µg/mL); solubility [4]: 0.05 mM (≈ 21.1 µg/mL)
160	580	CC(=O)c1ccc(/C=C2\SC(c3ccc(C)cc3)=NC2=O)cc1	–
190	5290	Cc1ccc(C2=NC(=O)/C(=C/c3ccc(S(C)(=O)=O)cc3)S2)cc1	–
4620	> 30000	COc1ccc(/C=C2\SC(c3ccc[n+](C)c3)=NC2=O)cc1	–
280	1240	Cc1ccc(C2=NC(=O)/C(=C/c3cccnc3)S2)cc1	–
6150	8550	COc1ccc(C(=C2SC(c3ccc(C)cc3)=NC2=O)c2ccc(OC)cc2)cc1	–
> 30000	940	COc1ccc(/C=C2\SC(c3ccc(C)cc3)N(C)C2=O)cc1 (stereo unspecified)	–
960	2660	COc1ccc(/C=C2\SC(c3cccnc3)=NC2=O)cc1	–
80	280	COc1ccc(/C=C2/SC(c3ccc(Cl)cc3)=NC2=O)cc1	solubility [2]: 15 mM (≈ 4950 µg/mL); solubility [4]: 0.03 mM (≈ 9.89 µg/mL)
8220	10300	COc1ccc(/N=C2\SC(c3ccc(C)cc3)=NC2=O)cc1	–
> 30000	2900	COc1ccc(/C=C2\S/C(=N/c3ccc(C)cc3)NC2=O)cc1	–
1070	3650	Cc1ccc(C2=NC(=O)/C(=C/c3ccc(N4CCOCC4)cc3)S2)cc1	solubility [2]: 10 mM (≈ 3640 µg/mL); solubility [4]: 0.01 mM (≈ 3.64 µg/mL)
170	430	COc1ccc(-c2sc(-c3ccc(C)cc3)nc2O)cc1	solubility [2]: 50 mM (≈ 14900 µg/mL); solubility [4]: 0.05 mM (≈ 14.9 µg/mL)
> 30000	> 30000	COc1ccc(/C=C2\N=C(c3ccc(C)cc3)OC2=O)cc1	–
860	980	Cc1ccc(C2=NC(=O)/C(=C/c3cccs3)S2)cc1	–
> 30000	> 30000	COc1ccc(/C=C2\C=C(c3ccc(C)cc3)OC2=O)cc1	–
> 30000	> 30000	COc1ccc(NC2(OC)SC(c3ccc(C)cc3)=NC2=O)cc1 (stereo unspecified)	–
11800	10300	COc1ccc(/C=C2\C=C(c3ccc(C)cc3)NC2=O)cc1	–
580	1330	Cc1ccc(C2=NC(=O)/C(=C/c3ccc(N)cc3)S2)cc1	–
–	–	COc1ccc(/C=C2\SC(c3ccc(C)cc3)=NC2=O)cc1	solubility [2]: 10 mM (≈ 3090 µg/mL); solubility [4]: 0.03 mM (≈ 9.28 µg/mL); inhibition [8]: inactive; inhibition [9]: Active
120	410	Cc1ccc(C2=NC(=O)/C(=C/C34CC5CC(CC(C5)C3)C4)S2)cc1	–

IC50 [1] [nM]	IC50 [6] [nM]	SMILES	other results
1460	8360	Cc1ccc(C2=NC(=O)/C(=C/c3ccc(C(=O)O)cc3)S2)cc1	–
330	2190	Cc1ccc(C2=NC(=O)/C(=C/c3ccncc3)S2)cc1	–
> 30000	1500	COc1ccc(-c2sc(-c3ccc(C)cc3)nc2C)cc1	–
520	2330	Cc1ccc(C2=NC(=O)/C(=C/c3ccc(OCCN4CCOCC4)cc3)S2)cc1	solubility [2]: 10 mM (≈ 4090 µg/mL); solubility [4]: 0.03 mM (≈ 12.3 µg/mL)
440	2990	COc1ccc(/C=C2\SC(c3ccncc3)=NC2=O)cc1	–
80	120	COc1ccc(/C=C2/SC(c3cccc4ccccc34)=NC2=O)cc1	solubility [2]: 10 mM (≈ 3450 µg/mL); solubility [4]: 0.03 mM (≈ 10.4 µg/mL)
> 30000	> 30000	COc1ccc(/C=C2/SC(=S)N(c3ccc(C)cc3)C2=O)cc1	–
160	690	COC(=O)c1ccc(/C=C2\SC(c3ccc(C)cc3)=NC2=O)cc1	–
300	2870	COc1ccc(/C=C2\SC(c3cnccn3)=NC2=O)cc1	–
–	–	CCCCCC(O)c1cccc(OCc2ccc3ccccc3n2)c1 (stereo unspecified) [REV-5901]	Activity [10]: 22.5%; viability at 48 h, 100 µM [11]: < 1%
6040	14900	Cc1ccc(C2=NC(=O)/C(=C/c3[nH]cnc3C)S2)cc1	–
–	–	CC(c1cc2ccccc2s1)N(O)C(N)=O (stereo unspecified) [ZILEUTON]	Activity [10]: 1.5%; viability at 48 h, 100 µM [11]: 86.5%
200	720	COc1ccc(Cc2sc(-c3ccc(C)cc3)nc2O)cc1	solubility [2]: 100 mM (≈ 31100 µg/mL); solubility [4]: 0.08 mM (≈ 24.9 µg/mL)
250	1440	Cc1ccc(C2=NC(=O)/C(=C/c3cccc(S(N)(=O)=O)c3)S2)cc1	solubility [2]: 30 mM (≈ 10800 µg/mL); solubility [4]: 0.08 mM (≈ 28.7 µg/mL)
8020	1580	Cc1ccc(C2=NC(=O)/C(=C/c3ccc[nH]3)S2)cc1	–
180	3610	COC(=O)/C=C/c1ccc(/C=C2\SC(c3ccc(C)cc3)=NC2=O)cc1	–
350	220	COc1ccc(/C=C/C=C2\SC(c3ccc(C)cc3)=NC2=O)cc1	–
330	740	Cc1ccc(C2=NC(=O)/C(=C/c3ccc(OC(=O)N4CCOCC4)cc3)S2)cc1	solubility [2]: 10 mM (≈ 4080 µg/mL); solubility [4]: 0.05 mM (≈ 20.4 µg/mL)
7800	1950	COc1ccc(/C=C2\N=C(c3ccc(C)cc3)NC2=O)cc1	–
2690	6090	Cc1ccc(C2=NC(=O)/C(=C/c3ncc[nH]3)S2)cc1	–
590	1560	COC1CCC(=Cc2sc(-c3ccc(C)cc3)nc2O)CC1 (stereo unspecified)	–
> 3000	1070	Cc1ccc(C2=NC(=O)/C(=C/c3c[nH]c4ccccc34)S2)cc1	–
330	1130	Cc1ccc(C2=NC(=O)/C(=C/c3ccc(O)cc3)S2)cc1	solubility [2]: 50 mM (≈ 14800 µg/mL); solubility [4]: 0.03 mM (≈ 8.86 µg/mL)
